We go through twelve compounds from PubChem BioAssay (NCI).

Among the test systems are U251 CNS; OVCAR-3 ovarian; ACHN renal; OVCAR-4 ovarian; HT29 colon; MCF7 breast; TK-10 renal; HCC-2998 colon; T-47D breast; UACC-257 melanoma.
Common to all, as to assay: DTP human tumour cell line panel, 48 h

“And” between values parts separate entries of the source, which are not always exact repeats. Equal entries are not always repeated.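 Briefly, cells in 96-well plates were exposed to five compound concentrations for 48 h, and endpoints were estimated by linear interpolation. GI50: concentration for 50% inhibition of growth. Definition used: TGI = concentration required for complete inhibition of growth.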

Consider `CN(C)CCN1CCC(Cc2ccccc2)CC1`, for which the GI50 with U251 CNS, with OVCAR-3 ovarian, with ACHN renal, in the experiment on OVCAR-4 ovarian, in the experiment on HT29 colon and in the experiment on MCF7 breast was greater than 80 µM throughout. Further, the GI50 in the experiment with TK-10 renal, in the experiment on HCC-2998 colon, in the experiment on T-47D breast and with UACC-257 melanoma was greater than 80 µM in each case. Also, the TGI in the experiment with U251 CNS, in the experiment on OVCAR-3 ovarian, with ACHN renal, in the experiment on OVCAR-4 ovarian, in the experiment on HT29 colon and with MCF7 breast was greater than 80 µM throughout. Further, the TGI in the experiment on TK-10 renal, in the experiment with HCC-2998 colon, in the experiment with T-47D breast and in the experiment on UACC-257 melanoma was greater than 80 µM each time.
Take `NC(=O)c1cc(I)ccc1NC(=O)/C=C/c1ccccc1`: the GI50 in the experiment with U251 CNS is 0.504 µM; in the experiment on OVCAR-3 ovarian it was 0.32 µM; in the experiment on ACHN renal, 3.15 µM; in the experiment on OVCAR-4 ovarian it was 1.84 µM; in the experiment on HT29 colon, 0.374 µM; in the experiment on MCF7 breast, 0.403 µM. Further, the GI50 in the experiment with TK-10 renal is 2.9 µM; in the experiment on HCC-2998 colon it was 1.38 µM; with T-47D breast it was 0.597 µM; with UACC-257 melanoma it was 14.3 µM. For the same compound, the concentration for total growth inhibition (TGI) in the experiment with U251 CNS is 14.6 µM; in the experiment with OVCAR-3 ovarian it was 1.01 µM; with ACHN renal, greater than 47.1 µM; with OVCAR-4 ovarian, 30.5 µM; with HT29 colon, greater than 31.8 µM; with MCF7 breast, greater than 42.6 µM. The total growth inhibition concentration (TGI) in the experiment with TK-10 renal was 44.1 µM; in the experiment on HCC-2998 colon it was 30.9 µM; in the experiment with T-47D breast, greater than 65.7 µM; with UACC-257 melanoma, 53.3 µM.
For `NC(=S)N/N=C/c1ncccc1O`, the GI50 in the experiment on U251 CNS was 3.35 µM; in the experiment on OVCAR-3 ovarian, 2.77 µM; with ACHN renal, 0.202 µM; in the experiment on OVCAR-4 ovarian it was 5.21 µM; with HT29 colon, 2.72 µM; in the experiment on MCF7 breast, 2.55 µM. Also, the GI50 was 11.2 µM in the experiment with TK-10 renal and 3.08 µM in the experiment on HCC-2998 colon. For the same compound, the TGI is > 89.9 µM and 557 µM with U251 CNS; > 59.3 µM and 123 µM in the experiment on OVCAR-3 ovarian; 8.54 µM and 1.38 µM in the experiment on ACHN renal; greater than 929 µM in the experiment with OVCAR-4 ovarian; greater than 1000 µM in the experiment on HT29 colon; > 37.5 µM and 183 µM in the experiment on MCF7 breast. For the same compound, the TGI was 292 µM in the experiment on TK-10 renal; > 42.3 µM and 166 µM in the experiment on HCC-2998 colon; greater than 823 µM with T-47D breast; 8.97 µM and 72.7 µM with UACC-257 melanoma.
Take `COc1cc(/C=C2\CCCCC3=C2N=C2SC(C)=CN2C3c2cc(OC)c(OC)c(OC)c2)cc(OC)c1OC` (stereo unspecified): the GI50 was 19.2 µM with U251 CNS; 23.7 µM in the experiment on OVCAR-3 ovarian; 11.9 µM in the experiment on ACHN renal; 12.3 µM with OVCAR-4 ovarian; greater than 100 µM with HT29 colon; 22.6 µM in the experiment with MCF7 breast. The GI50 in the experiment on TK-10 renal is 22.4 µM; in the experiment with HCC-2998 colon it was 74 µM; in the experiment on T-47D breast, 0.566 µM; in the experiment with UACC-257 melanoma it was 0.403 µM. In addition, the TGI in the experiment with U251 CNS, with OVCAR-3 ovarian, in the experiment with ACHN renal, in the experiment on OVCAR-4 ovarian, in the experiment with HT29 colon and in the experiment on MCF7 breast was greater than 100 µM in each case. Further, the TGI in the experiment with TK-10 renal, with HCC-2998 colon, with T-47D breast and in the experiment with UACC-257 melanoma was greater than 100 µM in each case.
`COC(=O)C1=CN(CC2=CC(=O)C(C)=CC2=O)C=C(C(=O)OC)C1c1ccccc1OC`: the GI50 is 20 µM in the experiment with U251 CNS; 13.2 µM in the experiment on OVCAR-3 ovarian; 14.8 µM in the experiment on ACHN renal; 22.5 µM in the experiment on OVCAR-4 ovarian; 40.9 µM in the experiment on HT29 colon; 24.4 µM in the experiment on MCF7 breast. Besides, the GI50 is 16.7 µM in the experiment on TK-10 renal, 15.5 µM in the experiment with HCC-2998 colon, 52.8 µM in the experiment on T-47D breast and 22.3 µM in the experiment on UACC-257 melanoma. The TGI with U251 CNS was 46.7 µM; in the experiment with OVCAR-3 ovarian it was 26.8 µM; with ACHN renal it was 30.6 µM; in the experiment with OVCAR-4 ovarian, greater than 67.4 µM; in the experiment with HT29 colon it was greater than 100 µM; in the experiment on MCF7 breast, 69.8 µM. In addition, the TGI in the experiment with TK-10 renal was 35.4 µM; in the experiment on HCC-2998 colon it was 28.9 µM; in the experiment with T-47D breast, greater than 100 µM; with UACC-257 melanoma it was 44.3 µM.
Take `CC(C)=CCC1=C(O)c2ccccc2C(=O)C1=O`: the TGI in the experiment with U251 CNS, in the experiment with OVCAR-3 ovarian, in the experiment with ACHN renal, in the experiment with OVCAR-4 ovarian, in the experiment with HT29 colon and in the experiment with MCF7 breast was greater than 100 µM each time. Further, the TGI in the experiment with TK-10 renal, in the experiment with HCC-2998 colon, with T-47D breast and in the experiment on UACC-257 melanoma was greater than 100 µM throughout. In addition, the GI50 with OVCAR-4 ovarian was 11.7 µM; in the experiment with MCF7 breast it was 21.8 µM; with TK-10 renal, > 100 µM and 37.8 µM and 87.1 µM; in the experiment on UACC-257 melanoma it was > 100 µM and 28.6 µM.
Take `CCN(Cc1c(F)cccc1OC)c1ccc(CO)c(Cl)c1`: the GI50 is 0.716 µM in the experiment on U251 CNS; 0.253 µM in the experiment with OVCAR-3 ovarian; 16.8 µM with ACHN renal; 0.216 µM with OVCAR-4 ovarian; 1.47 µM with HT29 colon; 0.165 µM in the experiment with MCF7 breast. Further, the GI50 is 7.33 µM in the experiment on HCC-2998 colon, 0.0467 µM in the experiment on T-47D breast and 0.0523 µM in the experiment on UACC-257 melanoma. Besides, the TGI in the experiment with U251 CNS was found to be 26.7 µM; with OVCAR-3 ovarian, 1.81 µM; in the experiment with ACHN renal it was 44.6 µM; in the experiment with OVCAR-4 ovarian it was 13 µM; in the experiment with HT29 colon it was 18.9 µM; with MCF7 breast it was 16.1 µM. Further, the TGI worked out at 0.0536 µM in the experiment with TK-10 renal, 22.3 µM with HCC-2998 colon, 0.283 µM in the experiment on T-47D breast and 0.226 µM with UACC-257 melanoma.
`NNc1ncnc2nc[nH]c12`: the GI50 in the experiment on U251 CNS is 10.9 µM; in the experiment with OVCAR-3 ovarian, 3.56 µM; in the experiment on ACHN renal it was 4.78 µM; in the experiment with OVCAR-4 ovarian, 3.79 µM; in the experiment with HT29 colon, 4.36 µM; in the experiment on MCF7 breast, 3.1 µM. Further, the GI50 in the experiment on TK-10 renal is 2.94 µM; in the experiment on HCC-2998 colon it was 7.48 µM; in the experiment with T-47D breast, 3.67 µM; in the experiment with UACC-257 melanoma, 57.6 µM. The TGI is greater than 100 µM in the experiment with U251 CNS; 26.9 µM with OVCAR-3 ovarian; greater than 94 µM with ACHN renal; greater than 100 µM with OVCAR-4 ovarian; greater than 100 µM in the experiment with HT29 colon; greater than 100 µM with MCF7 breast. Moreover, the TGI in the experiment with TK-10 renal was greater than 100 µM; in the experiment with HCC-2998 colon it was greater than 58.1 µM; in the experiment on T-47D breast it was greater than 100 µM; with UACC-257 melanoma it was greater than 100 µM.
Consider `O=[N+]([O-])c1ccccc1N=Nc1c(O)[nH]c2c(Cl)cc(Cl)cc12`, for which the TGI in the experiment with U251 CNS was 27.7 µM; in the experiment on OVCAR-3 ovarian, greater than 74.7 µM; in the experiment with ACHN renal, 46.8 µM; in the experiment with OVCAR-4 ovarian, greater than 100 µM; in the experiment on HT29 colon it was greater than 100 µM; in the experiment on MCF7 breast, greater than 100 µM. Also, the total growth inhibition concentration (TGI) is 96.2 µM in the experiment with TK-10 renal, greater than 100 µM in the experiment on HCC-2998 colon, greater than 100 µM in the experiment on T-47D breast and greater than 100 µM in the experiment with UACC-257 melanoma.
Take `CCn1cc(-c2ccnc3[nH]c(-c4cccc(CN(C)C)c4)cc23)c(-c2ccc(NC(=O)N(C)C)cc2)n1`: the GI50 in the experiment on U251 CNS is 2.34 µM and 4.03 µM; in the experiment on OVCAR-3 ovarian, 3.82 µM and 3.15 µM; in the experiment with ACHN renal, 1.73 µM and 2.45 µM; in the experiment with OVCAR-4 ovarian, 0.479 µM and 3.41 µM; in the experiment on HT29 colon it was 1.89 µM and 1.4 µM; in the experiment on MCF7 breast, 0.487 µM and 0.312 µM. Moreover, the GI50 with TK-10 renal is 6.77 µM and 1.67 µM; in the experiment on HCC-2998 colon, 7.29 µM and > 10 µM; in the experiment on T-47D breast it was 13.3 µM and > 10 µM; in the experiment with UACC-257 melanoma, 4.76 µM and > 10 µM. Further, the total growth inhibition concentration (TGI) is 19.1 µM and > 10 µM with U251 CNS; 23.9 µM and > 10 µM with OVCAR-3 ovarian; 10.2 µM and > 10 µM in the experiment on ACHN renal; 37.1 µM and > 10 µM in the experiment with OVCAR-4 ovarian; 22.6 µM and > 10 µM in the experiment with HT29 colon; 19.4 µM and > 10 µM with MCF7 breast. For the same compound, the TGI in the experiment on TK-10 renal is 26 µM and > 10 µM; with HCC-2998 colon it was 21.5 µM and > 10 µM; in the experiment on T-47D breast it was 77.3 µM and > 10 µM; in the experiment on UACC-257 melanoma it was 21.7 µM and > 10 µM.
In the case of `N#CC(I)CS(=O)(=O)c1ccccc1` (stereo unspecified), the GI50 in the experiment with U251 CNS is greater than 100 µM; in the experiment with OVCAR-3 ovarian, 2.03 µM; with ACHN renal, 1.87 µM; with OVCAR-4 ovarian, 2.01 µM; in the experiment on HT29 colon, 2 µM; in the experiment on MCF7 breast it was 16.7 µM. The GI50 in the experiment on TK-10 renal is 1.75 µM; in the experiment on HCC-2998 colon it was 17.7 µM; with T-47D breast, 18.4 µM; in the experiment with UACC-257 melanoma it was 17 µM. Further, the TGI was greater than 100 µM with U251 CNS; 3.55 µM with OVCAR-3 ovarian; 3.35 µM in the experiment on ACHN renal; 4.69 µM in the experiment with OVCAR-4 ovarian; 4.51 µM with HT29 colon; 39.9 µM in the experiment with MCF7 breast. For the same compound, the concentration for total growth inhibition (TGI) with TK-10 renal is 3.3 µM; with HCC-2998 colon, 31.8 µM; with T-47D breast it was 42.6 µM; in the experiment with UACC-257 melanoma it was 31.2 µM.
As to `Cc1nc2sccn2c1-c1nc2sccn2c1/C=C1/C(=O)Nc2ccccc21`, the GI50 in the experiment with U251 CNS is 4.54 µM; with OVCAR-3 ovarian, 1.7 µM; in the experiment on ACHN renal, 7.72 µM; in the experiment on OVCAR-4 ovarian, 13.8 µM; in the experiment with HT29 colon, 2.96 µM; in the experiment on MCF7 breast, 1.5 µM. For the same compound, the GI50 with TK-10 renal was 13.5 µM; in the experiment on HCC-2998 colon, 8.3 µM; in the experiment with T-47D breast it was 3.47 µM; in the experiment on UACC-257 melanoma, 16.3 µM. For the same compound, the TGI in the experiment with U251 CNS is 64.8 µM; in the experiment with OVCAR-3 ovarian it was 6.24 µM; with ACHN renal, greater than 100 µM; in the experiment on OVCAR-4 ovarian it was greater than 100 µM; in the experiment with HT29 colon it was 10.7 µM; with MCF7 breast, 6.51 µM. The TGI was greater than 100 µM in the experiment on TK-10 renal, 29.8 µM in the experiment on HCC-2998 colon, 63.6 µM with T-47D breast and 91.9 µM with UACC-257 melanoma.
